Data from US20220136032A1, “SELECTION MEDIUM FOR BACTERIA BELONGING TO GENUS PSEUDOMONAS AND USE THEREOF” (KABUSHIKI KAISHA YAKULT HONSHA, priority 2019, published 2022).
Counter-ions that a name gives are not always drawn. Like-named read-outs stand apart in the source and are kept apart here. One block for each molecule: values may come before it.

How the values were obtained:
Assay in all cases: Measurement of minimum inhibitory concentrations (MICs), liquid medium, OD 660 nm
P. aeruginosa = type: cell-based, Pseudomonas aeruginosa; settings: for MIC: Pseudomonas aeruginosa, read-out: MIC (μg/ml) P. aeruginosa
Experimental: (§1) Colonies of E. coli, E. faecium and C. kerstersii, which formed colonies on the plate medium obtained by mixing NAC medium and TSA medium at a ratio of 1:20, and colonies of P. aeruginosa were taken, added to 500 μl of the basal medium, stirred and subjected to the following experiment.
The antibacterial agents were dissolved in sterilized distilled water at 51.2 mg/ml and then sterilized by filtration through a membrane filter of 0.45 μm (DISMIC-25cs: Toyo Roshi).
(§2) After adding 5 μl of the bacterial solutions to the wells and thoroughly stirring, the bacteria were cultured at 37° C. for 24 hours. After culturing, the OD values (660 nm) were measured, and the lowest concentrations of the antibacterial agents at which the growth was inhibited as compared to that of the negative control (MICs: minimum inhibitory concentrations) were determined. As the negative control, the liquid medium to which the antibacterial agents were not added was used.

E. faecium = type: cell-based, Enterococcus faecium; settings: Trypticase Soy Broth, 37° C. 24 hours
Experimental: as §1
(§3) As antibacterial agents to which the sensitivity of P. aeruginosa is low and to which the sensitivities of E. coli, E. faecium and C. kerstersii are high, cefotaxime sodium salt (Sigma (referred to as “Cefotaxime” below)), ceftizoxime sodium (Fujisawa Healthcare (referred to as “Ceftizoxime” below)), vancomycin hydrochloride (Sigma (referred to as “Vancomycin” below)), minocyclin hydrochloride (Sigma (referred to as “Minocyclin” below)) and cefalotin sodium salt (Sigma (referred to as “Cefalotin” below)) were selected. The antibacterial agents were dissolved in sterilized distilled water at 51.2 mg/ml and then sterilized by filtration through a membrane filter of 0.45 μm (DISMIC-25cs: Toyo Roshi).
as §2, with “As the negative control, the liquid medium to which the antibacterial agents were not added was used.” left out

C. kerstersii = type: cell-based, Comamonas kerstersii; settings: for MIC: Comamonas kerstersii, read-out: MIC (μg/ml) C. kerstersii
Experimental: as §1, §3, §2

E. coli = type: cell-based; settings: Escherichia coli; Trypticase Soy Broth, 37° C. 24 hours; read-out: MIC (μg/ml) E. coli
Experimental: as §1, §3
as §2, with “As the negative control, the liquid medium to which the antibacterial agents were not added was used.” left out

[1] = Trypticase Soy Broth, 37° C. 24 hours

MIC (P. aeruginosa; [1]): > 256 µg/mL
MIC (E. faecium; Enterococcus faecium, read-out: MIC (μg/ml) E. faecium): 8 µg/mL
MIC (C. kerstersii; [1]): 16 µg/mL
SMILES: CC(=O)OCC1=C(C(=O)O)N2C(=O)[C@@H](NC(=O)Cc3cccs3)[C@H]2SC1 [Cefalotin, cefalotin sodium salt]
Sensitivity of P. aeruginosa to the antibacterial agent (P. aeruginosa): low

MIC (E. coli): < 0.5 µg/mL
MIC (P. aeruginosa; [1]): 16 µg/mL
SMILES: CO/N=C(\C(=O)N[C@@H]1C(=O)N2C(C(=O)O)=C(COC(C)=O)CS[C@H]12)c1csc(N)n1 [Cefotaxime, cefotaxime sodium salt]

MIC (E. coli): < 0.5 µg/mL
MIC (P. aeruginosa; [1]): 64 µg/mL
SMILES: CO/N=C(\C(=O)N[C@@H]1C(=O)N2C(C(=O)O)=CCS[C@H]12)c1csc(N)n1 [Ceftizoxime, ceftizoxime sodium]

MIC (μg/ml) P. aeruginosa (P. aeruginosa; [1]): <0.5 µg/mL
MIC (μg/ml) E. faecium (E. faecium): <0.5 µg/mL
MIC (μg/ml) C. kerstersii (C. kerstersii; [1]): <0.5 µg/mL
SMILES: CN(C)c1ccc(O)c2c1C[C@@H]1C[C@@H]3[C@H](N(C)C)C(=O)C(C(N)=O)=C(O)[C@@]3(O)C(=O)C1=C2O.Cl [Minocyclin, minocyclin hydrochloride]
Sensitivity of P. aeruginosa to the antibacterial agent (P. aeruginosa): sensitive

SMILES: CN[C@H](CC(C)C)C(=O)N[C@H]1C(=O)N[C@@H](CC(N)=O)C(=O)N[C@H]2C(=O)N[C@H]3C(=O)N[C@H](C(=O)N[C@H](C(=O)O)c4cc(O)cc(O)c4-c4cc3ccc4O)[C@H](O)c3ccc(c(Cl)c3)Oc3cc2cc(c3O[C@@H]2O[C@H](CO)[C@@H](O)[C@H](O)[C@H]2O[C@H]2C[C@](C)(N)[C@H](O)[C@H](C)O2)Oc2ccc(cc2Cl)[C@H]1O [Vancomycin, vancomycin hydrochloride]
MIC (P. aeruginosa; 24 h): > 256 µg/mL
Sensitivity of C. kerstersii to the antibacterial agent (C. kerstersii): low
MIC (C. kerstersii; 24 h): 128 µg/mL
